From patent US20230015532A1, “PHARMACEUTICAL COMPOSITION, FOR PREVENTING OR TREATING FIBROSIS, COMPRISING PHEOPHORBIDE COMPOUND AS ACTIVE INGREDIENT” (PAEAN BIOTECHNOLOGY INC., priority 2019, published 2023)

Legend:
Type in all cases: cell-based, human
[1] = system: phosphorylated Smad3 and phosphorylated ERK in CCD8-Lu cells; experiment: Western blotting of phosphorylated proteins of TGF-β signaling (Experimental Example 5); settings: 5 μM, 6 hours after 5 ng/ml TGF-β
Protocol: A cell-based assay experiment was performed using Western blotting assay to determine the effect of pheophorbide a on phosphorylation in the TGF-β signaling pathway. CCD8-Lu cells, which are human lung-derived fibroblasts, were cultured in the DMEM medium containing 10% FBS. About 2×10^5 cells were then inoculated into a 6 well plate, cultured for 24 hours, and subjected to the deficient condition in the DMEM medium from which FBS was removed for about 24 hours. 24 hours later, following the treatment with TGF-β at a concentration of 5 ng/ml, fibrosis of cells was induced for 6 hours. Then, the cells were treated with pheophorbide a obtained in Preparation Example 2 or the therapeutic agent for pulmonary fibrosis and further cultured for 18 hours. Then, the negative control group was treated with nothing, the positive control group was treated with TGF-β alone at a concentration of 5 ng/ml, and the experimental groups were treated with TGF-β at a concentration of 5 ng/ml and 6 hours later, with pheophorbide a at a concentration of 5 μM and nintedanib at a concentration of 1 μM, respectively. […] The separated supernatant was obtained and transferred to a new microtube and then the protein was quantified using a bicinchoninic acid assay (BCA assay) protein quantitative kit. […]

[2] = system: collagen 1A in CCD8-Lu cells; experiment: Anti-fibrotic activity by immunocytochemistry staining (Experimental Example 3.2); settings: 6 hours after 5 ng/ml TGF-β
Protocol: A cell-based assay experiment was performed to analyze the anti-fibrotic activity of pheophorbide a obtained in Preparation Example 2, using immunocytochemistry staining method.
CCD8-Lu cells, which are human lung-derived fibroblasts, were cultured in the DMEM medium containing 10% FBS. About 2×10^4 cells were then inoculated into a 24 well plate and cultured for 24 hours, and subjected to the deficient condition in the DMEM medium from which FBS was removed for about 24 hours.
After 24 hours, following the treatment with TGF-β at a concentration of 5 ng/ml, fibrosis of cells was induced for 6 hours. After 6 hours, the cells were treated with pheophorbide a obtained in Preparation Example 2 and further cultured for 18 hours (FIG. 2). Then, the negative control group was treated with nothing, the positive control group was treated with TGF-β alone at a concentration of 5 ng/ml, and the experimental groups were treated with TGF-β at a concentration of 5 ng/ml and 6 hours later, with pheophorbide a at each concentration of 0.15 μM, 0.3 μM, 0.6 μM, 1.2 μM, 2.5 μM and 5 μM.
Immunohistochemistry analysis for each sample was performed as follows. […] The nuclei were stained using DAPI (4,6-diamidino-2-phenylindole) and the difference in the intensity of fluorescence was analyzed using a fluorescence microscope.

[3] = system: α-SMA, collagen 1A and fibronectin in CCD8-Lu cells; experiment: Comparison of anti-fibrotic activity by Western blotting (Experimental Example 4.2); settings: 2.5 μM and 5 μM, 6 hours after 5 ng/ml TGF-β, 18 hours
Protocol: A cell-based analysis experiment was performed to analyze the anti-fibrotic activity of pheophorbide a in comparison with nintedanib and pirfenidone, which were previously approved as a therapeutic agent for pulmonary fibrosis, using Western blotting assay.
CCD8-Lu cells, which are human lung-derived fibroblasts, were cultured in the DMEM medium containing 10% FBS. About 2×10^5 cells were then inoculated into a 6 well plate, cultured for 24 hours, and subjected to the deficient condition in the DMEM medium from which FBS was removed for about 24 hours.
24 hours later, following the treatment with TGF-β at a concentration of 5 ng/ml, fibrosis of cells was induced for 6 hours. Then, the cells were treated with pheophorbide a obtained in Preparation Example 2 or the therapeutic agent for pulmonary fibrosis and further cultured for 18 hours. Then, the negative control group was treated with nothing, the positive control group was treated with TGF-β alone at a concentration of 5 ng/ml, and the experimental groups were treated with TGF-β at a concentration of 5 ng/ml and 6 hours later, with pheophorbide a at a concentration of […] or 5 μM, nintedanib at a concentration of 1 μM, and pirfenidone at a concentration of 1 mM, respectively.
After 18 hours, the culture medium was removed and the cells were washed twice by adding a PBS buffer solution, and 100 μl of RIPA buffer solution (150 mM NaCl, 1% NP-40, 0.5% Deoxycholic acid, 0.1% SDS, 50 mM Tris pH 7.5) containing a protease inhibitor was added thereto directly. 10 minutes later, the cells were recovered using a scraper and transferred to a microtube and centrifuged at about 12,000×g for 10 minutes.
The separated supernatant was obtained and transferred to a new microtube and then the protein was quantified using a bicinchoninic acid assay (BCA assay) protein quantitative kit. Each sample with the same amount of protein was subjected to electrophoresis, and then Western blotting was performed. […]

[4] = system: collagen 1A in CCD8-Lu cells; experiment: Comparison of anti-fibrotic activity by immunocytochemistry staining (Experimental Example 4.3); settings: 2.5 μM and 5 μM; 6 hours after 5 ng/ml TGF-β; fluorescence intensity
Protocol: A cell-based analysis experiment was performed to analyze the anti-fibrotic activity of pheophorbide a in comparison with nintedanib and pirfenidone, which were previously approved as a therapeutic agent for pulmonary fibrosis, using immunocytochemistry staining method. CCD8-Lu cells, which are human lung-derived fibroblasts, were cultured in the DMEM medium containing 10% FBS. About 2×10^4 cells were then inoculated into a 24 well plate and cultured for 24 hours, and subjected to the deficient condition in the DMEM medium from which FBS was removed for about 24 hours. After 24 hours, following the treatment with TGF-β at a concentration of 5 ng/ml, fibrosis of cells was induced for 6 hours. After 6 hours, the cells were treated with 2.5 μM or 5 μM of pheophorbide a, 1 μM of nintedanib, or 1 mM of pirfenidone. Immunohistochemistry analysis for each sample was performed as follows. First, the sample was washed twice with a PBS buffer, and then 4% formaldehyde was added to fix for 1 hour, and anti-collagen 1A was used as a primary antibody and Alexa Fluor 488 was used as a secondary antibody. The nuclei were stained using DAPI (4,6-diamidino-2-phenylindole) and the difference in the intensity of fluorescence was analyzed using a fluorescence microscope.

pheophorbide a
expression of phosphorylated Smad3 and phosphorylated ERK induced by TGF-β [1]: remarkably inhibited | increased expression of collagen 1A induced by TGF-β ([2]; 0.15-5 μM, fluorescence intensity): largely inhibited | inhibitory effect on the increased expression of collagen 1A induced by TGF-β ([2]; concentration of 2.5 μM or more): most excellent inhibitory effect | expression of the α-SMA, collagen 1A, and fibronectin induced by TGF-β [3]: remarkably inhibited | increased expression of collagen 1A induced by TGF-β [4]: remarkably inhibited
